Data: article PMC4710668, “Bioactivation of food genotoxicants 5-hydroxymethylfurfural and furfuryl alcohol by sulfotransferases from human, mouse and rat: a comparative study” (Archives of Toxicology, 2014)

Assays:
[1] = system: male B6C3F1 mice; conditions: 32 ppm FFA in the air (equivalent to 60 mg FFA/kg bw/day), ref National Toxicology Program [1999]; cited from earlier work
[2] = system: rSult2a4; test: FFA sulfoconjugation assay (N6-MF-A formation with adenosine as scavenger); type: biochemical, rat
Procedure: Cytosolic fractions containing individual SULT forms were prepared from transgenic S. typhimurium TA1538. Table S1 in the Supplementary Material provides a summary of the thirty SULTs used in the current study together with references describing the cloning of the respective S. typhimurium TA1538 strains. The expressed SULT forms are denoted with the prefixes h, m and r for human, mouse and rat enzymes, respectively. Bacteria were grown in Luria Broth medium containing ampicillin (100 µg/ml) by stirring for 8 h at 200 revolutions/min at 37 °C. The bacterial suspensions were centrifuged at 5,000 g for 10 min. The sediments were washed twice with 25 ml of 10 mM potassium phosphate buffer (pH 7.4)/50 mM potassium chloride (KCP buffer) and centrifuged again. The pellets were taken up in 800 µl KCP buffer and sonicated thrice for 15 s with 30 s pauses in between. The soluble fraction was attained by centrifuging for 1 h at 100,000 g. The supernatants (in the following termed cytosolic preparations) were frozen at −80 °C. The protein concentrations were determined according to a bicinchoninic acid (BCA) assay protocol. […]
The ribonucleoside adduct N ^6-((furan-2-yl)methyl)-adenosine (N ^6-MF-A) was analyzed by isotope-dilution UPLC-MS/MS with the same system described above using a HSS T3 column (1.8 µm, 2.1 × 100 mm, Waters). […] The fragmentations of N ^6-MF-A into the aglycone cation [N ^6-((furan-2-yl)methyl)-adenine-H]^+ (m/z = 348.1 → 216.1), the cleavage of the 2-methylfuranyl cation (m/z = 348.1 → 81.0) and the release of [N ^6-methyl-adenine-H]^+ (m/z = 348.1 → 148.0) were monitored together with the corresponding fragmentations of the isotope-labeled internal standard [^15N5]N ^6-MF-A for the formation of the aglycone (m/z = 353.1 → 221.1), the 2-methylfuran cation (m/z = 353.1 → 81.0) and ^15N5-labeled N ^6-methyl-adenine (m/z = 353.1 → 153.0). The N ^6-MF-A content of the incubation mixture was calculated from the ratio of peak areas resulting from the total ion current of all three MRM signals of the analyte. […]

[3] = system: rSult2a4; test: HMF sulfoconjugation assay; type: biochemical, rat
Procedure: (§1) Cytosolic fractions containing individual SULT forms were prepared from transgenic S. typhimurium TA1538. Table S1 in the Supplementary Material provides a summary of the thirty SULTs used in the current study together with references describing the cloning of the respective S. typhimurium TA1538 strains. The expressed SULT forms are denoted with the prefixes h, m and r for human, mouse and rat enzymes, respectively. Bacteria were grown in Luria Broth medium containing ampicillin (100 µg/ml) by stirring for 8 h at 200 revolutions/min at 37 °C. The bacterial suspensions were centrifuged at 5,000 g for 10 min. The sediments were washed twice with 25 ml of 10 mM potassium phosphate buffer (pH 7.4)/50 mM potassium chloride (KCP buffer) and centrifuged again. The pellets were taken up in 800 µl KCP buffer and sonicated thrice for 15 s with 30 s pauses in between. The soluble fraction was attained by centrifuging for 1 h at 100,000 g. The supernatants (in the following termed cytosolic preparations) were frozen at −80 °C. The protein concentrations were determined according to a bicinchoninic acid (BCA) assay protocol. The SULT concentrations in the cytosolic preparations were estimated after electrophoretic separation and immunodetection using inclusion bodies of different SULT forms as standards (Teubner et al. [2007]). The preparation of SULT inclusion bodies and the immunodetection of SULTs is described in the Supplementary Material, which also contains a representative immunoblot of different amounts of rSult1a1standard and a cytosolic preparation of S. typhimurium expressing rSult1a1 (Fig. S1).
(§2) The reactions were conducted in mixtures of 100 µl containing 25–200 µg protein, 50 mM potassium phosphate buffer (pH 7.4), 5 mM MgCl2, 50 µM PAPS and different concentrations of HMF at 37 °C. Preliminary experiments ensured that measurements were recorded under ‘linear’ conditions, i.e., doubling of protein concentration or incubation time was doubling the amount of sulfate ester formed. The reactions were stopped after 30 min by adding 300 µl ice-cold 2-propanol, mixed and centrifuged at 15,000 g for 10 min.
(§3) SMF concentrations of the clear supernatants were analyzed by UPLC-MS/MS. The protocol was adapted from the quantification of SMF in plasma samples of HMF-treated mice (Monien et al. [2009]). In short, the supernatants were analyzed using a UPLC system (Waters) connected to a Quattro Premier XE tandem quadrupole mass spectrometer (Waters) using the negative electrospray ionization mode. Samples of 4 µl were injected into a HSS T3 column (1.8 µm, 2.1 × 100 mm; Waters) and eluted with an isocratic flow of 0.35 ml/min 10 mM ammonium acetate/methanol (95:5). The fragmentation reactions of SMF yielding two principal ions, the sulfate ion radical (m/z = 204.9 → 96.0) and the protonated sulfonate ion (m/z = 204.9 → 81.0) were monitored. The tune parameters were as follows: temperature of the electrospray source 120 °C; desolvation temperature 475 °C; desolvation gas nitrogen (800 l/h); cone gas nitrogen (100 l/h); collision gas argon (indicated cell pressure ~5 × 10^−3 mbar). For the fragmentation of SMF, collision energies were 20 and 23 eV for the transitions m/z = 204.9 → 81.0 and m/z = 204.9 → 96.0, respectively. The dwell time was set to 100 ms, and capillary voltage was set to 0.35 kV. The cone and RF1 lens voltages were 32 and 0.2 V, respectively. SMF was quantified using an external calibration line that was linear in the concentration range of 1.0 nM (4 fmol/injection) to 2,500 (10 pmol/injection) SMF (r ^2 ≥ 0.99). Data acquisition and handling were performed with MassLynx 4.1 software (Waters). The limit of detection (LOD) for this technique of 2.5 nM SMF has been reported (Monien et al. [2009]). In the current study, this corresponds to 10 fmol SMF per injection or a reaction rate of 0.5 pmol SMF/mg/min.

[4] = system: rSult2a3; test: HMF sulfoconjugation assay; type: biochemical, rat
Procedure: as §1, §2, §3

SMILES | carcinogenic effect [1] | Rate of N6-MF-A formation ([2]; 0.1 mM FFA) | Rate of N6-MF-A formation ([2]; 1 mM FFA) | Rate of N6-MF-A formation ([2]; 10 mM FFA) | Rate of sulfoconjugation ([3]; 0.1 mM HMF) | Rate of sulfoconjugation ([3]; 1 mM HMF) | Rate of sulfoconjugation ([3]; 10 mM HMF) | Rate of sulfoconjugation ([3]; 100 mM HMF) | Rate of sulfoconjugation ([4]; 0.1 mM HMF) | Rate of sulfoconjugation ([4]; 1 mM HMF) | Rate of sulfoconjugation ([4]; 10 mM HMF) | Rate of sulfoconjugation ([4]; 100 mM HMF)
OCc1ccco1 [FFA, furfuryl alcohol] | induced renal tubule neoplasms | <18 fmol N ^6-MF-A/mg/min | <20 fmol N ^6-MF-A/mg/min | <44 fmol N ^6-MF-A/mg/min | – | – | – | – | – | – | – | –
O=Cc1ccc(CO)o1 [HMF, 5-Hydroxymethylfurfural] | – | – | – | – | <0.5 pmol/mg/min | <0.5 pmol/mg/min | <0.5 pmol/mg/min | <0.5 pmol/mg/min | 0.6 ± 0.0 pmol/mg/min | 6.2 ± 0.2 pmol/mg/min | 62.8 ± 4.6 pmol/mg/min | 76.5 ± 8.8 pmol/mg/min
